Data: patent US20250282771A1, “TETRAHYDROISOQUINOLINE HETEROBIFUNCTIONAL BCL-XL DEGRADERS” (Treeline Biosciences, Inc., priority 2022, published 2025)

Biological target: T1, N-terminal HiBiT tagged BCL-XL (Homo sapiens, UniProt Q07817)
T1 construct: expressed in transfected cells; host or cells: HT-1080 (ATCC CCL-121) cells stably transduced with lentivirus pLV-UBC-N-HiBiT-BCL-XL-PGK-puro
Test: HiBiT based degradation assay
Assay type: cell-based
Details: HT1080 cells expressing N-terminal HiBiT tagged BCL-XL, BCL-XL level normalized with DMSO control
From the text: Human BCL-XL protein coding open reading frame fused with N-terminal HiBiT coding sequence was synthesized from Integrated DNA Technologies (IDT). Next, N-HiBiT-BCL-XL sequence was cloned into pLV-UBC-PGK-Puro, a lentivirus plasmid purchased from Vectorbuilder, to generate pLV-UBC-N-HiBiT-BCL-XL-PGK-puro. Lentiviral particles were generated from Lenti-X™ 293T cells (Clontech) by co-transfection of pLV-UBC-N-HiBiT-BCL-XL-PGK-puro plasmids and lentiviral packaging plasmid mix (Cellecta). HT-1080 [HT1080](ATCC CCL-121) cells were infected with the lentivirus, and HT1080 cells stably integrated with the lentiviral vectors were established by incubation with […] puromycin (Thermofisher).
HT1080 cells expressing N-terminal HiBiT tagged BCL-XL were dispensed into a 384-well plate pre-spotted with compounds at varying concentrations. Three thousand cells were seeded into each well in 40 μL of RPMI 1640 media. […] After incubation, luminescence was read on a PHERAstar FSX Plate Reader (BMG). BCL-XL degradation at each indicated concentration was normalized with the DMSO control. The BCL-XL degradation curves were plotted using a four-parameter logistic model. For compounds displaying hook effects, the curve fitting was performed using the bottom point of the hook curves (i.e., the point of Ymin) as the bottom plateau to calculate EC50.

T1 sequence (Q07817 whole entry): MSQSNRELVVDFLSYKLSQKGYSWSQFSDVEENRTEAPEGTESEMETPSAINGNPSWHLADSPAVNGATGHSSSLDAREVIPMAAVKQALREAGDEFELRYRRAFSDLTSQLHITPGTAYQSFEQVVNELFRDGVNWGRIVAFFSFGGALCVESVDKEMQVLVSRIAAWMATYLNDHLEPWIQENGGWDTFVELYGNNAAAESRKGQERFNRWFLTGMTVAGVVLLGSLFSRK

Row | Structure (SMILES) | Ymin (6 h) | Ymin (24 h)
1 | Cc1c(OCCCCCCCN2CCN(c3cc4c(cc3F)C(=O)N(C3CCC(=O)NC3=O)C4=O)CC2)cccc1-c1ccc(N2CCc3cccc(C(=O)Nc4nc5ccccc5s4)c3C2)nc1C(=O)NO (stereo not shown) [Compound 137, N-(benzo[d]thiazol-2-yl)-2-(5-(3-((7-(4-(2-(2,6-dioxopiperidin-3-yl)-6-fluoro-1,3-dioxoisoindolin-5-yl)piperazin-1-yl)heptyl)oxy)-2-methylphenyl)-6-(hydroxycarbamoyl)pyridin-2-yl)-1,2,3,4-tetrahydroisoquinoline-8-carboxamide] | C (Ymin ≥ 70%) | B (50% ≤ Ymin < 70%)
2 | Cc1c(OCCCCCCCCCCCN2CCN(c3cc4c(cc3F)C(=O)N(C3CCC(=O)NC3=O)C4=O)CC2)cccc1-c1ccc(N2CCc3cccc(C(=O)Nc4nc5ccccc5s4)c3C2)nc1C(=O)O (stereo not shown) [Compound 107] | B (50% ≤ Ymin < 70%) | 
3 | Cc1c(OCCCCCCCN2CCN(c3cc4c(cc3F)C(=O)N(C3CCC(=O)NC3=O)C4=O)CC2)cccc1-c1ccc(N2CCc3cccc(C(=O)Nc4nc5ccccc5s4)c3C2)nc1C(=O)O (stereo not shown) [Compound 104, 6-(8-(benzo[d]thiazol-2-ylcarbamoyl)-3,4-dihydroisoquinolin-2(1H)-yl)-3-(3-((7-(4-(2-(2,6-dioxopiperidin-3-yl)-6-fluoro-1,3-dioxoisoindolin-5-yl)piperazin-1-yl)heptyl)oxy)-2-methylphenyl)picolinic acid] | B (50% ≤ Ymin < 70%) | B (50% ≤ Ymin < 70%)
4 | Cc1c(OCCC2CCN(CC3CCN(c4cc5c(cc4F)C(=O)N(C4CCC(=O)NC4=O)C5=O)CC3)CC2)cccc1-c1ccc(N2CCc3cccc(C(=O)Nc4nc5ccccc5s4)c3C2)nc1C(=O)O (stereo not shown) [Compound 145, 6-[8-(1,3-benzothiazol-2-ylcarbamoyl)-3,4-dihydro-1H-isoquinolin-2-yl]-3-[3-[2-[1-[[1-[2-(2,6-dioxo-3-piperidyl)-6-fluoro-1,3-dioxo-isoindolin-5-yl]-4-piperidyl]methyl]-4-piperidyl]ethoxy]-2-methyl-phenyl]pyridine-2-carboxylic acid] |  | A (Ymin < 50%)
5 | Cc1cc(OCCCC2CCN(CC(=O)N3CCN(c4cc5c(cc4F)C(=O)N(C4CCC(=O)NC4=O)C5=O)CC3)CC2)ccc1-c1ccc(N2CCc3cccc(C(=O)Nc4nc5ccccc5s4)c3C2)nc1C(=O)O (stereo not shown) [Compound 138] | C (Ymin ≥ 70%) | B (50% ≤ Ymin < 70%)
6 | Cc1c(OCCCCCCCC(=O)N2CCN(c3cc4c(cc3F)C(=O)N(C3CCC(=O)NC3=O)C4=O)CC2)cccc1-c1ccc(N2CCc3cccc(C(=O)Nc4nc5ccccc5s4)c3C2)nc1C(=O)O (stereo not shown) [Compound 114] | B (50% ≤ Ymin < 70%) | 
7 | Cc1c(OCCCC[C@@H]2CCCN(CC(=O)N3CCN(c4cc5c(cc4F)C(=O)N(C4CCC(=O)NC4=O)C5=O)CC3)C2)cccc1-c1ccc(N2CCc3cccc(C(=O)Nc4nc5ccccc5s4)c3C2)nc1C(=O)O (stereo partly drawn) [Compound 135a, 6-[8-(1,3-benzothiazol-2-ylcarbamoyl)-3,4-dihydro-1H-isoquinolin-2-yl]-3-[3-[4-[(3R)-1-[2-[4-[2-(2,6-dioxo-3-piperidyl)-6-fluoro-1,3-dioxo-isoindolin-5-yl]piperazin-1-yl]-2-oxo-ethyl]-3-piperidyl]butoxy]-2-methyl-phenyl]pyridine-2-carboxylic acid] |  | B (50% ≤ Ymin < 70%)
8 | Cc1c(OCCCCC2CCN(CC(=O)N3CCN(c4cc5c(cc4F)C(=O)N(C4CCC(=O)NC4=O)C5=O)CC3)CC2)cccc1-c1ccc(N2CCc3cccc(C(=O)Nc4nc5ccccc5s4)c3C2)nc1C(=O)O (stereo not shown) [Compound 141] | B (50% ≤ Ymin < 70%) | B (50% ≤ Ymin < 70%)
9 | Cc1c(OCCC(F)(F)C2CCN(CC(=O)N3CCN(c4cc5c(cc4F)C(=O)N(C4CCC(=O)NC4=O)C5=O)CC3)CC2)cccc1-c1ccc(N2CCc3cccc(C(=O)Nc4nc5ccccc5s4)c3C2)nc1C(=O)O (stereo not shown) [Compound 126, 6-(8-(benzo[d]thiazol-2-ylcarbamoyl)-3,4-dihydroisoquinolin-2(1H)-yl)-3-(3-(3-(1-(2-(4-(2-(2,6-dioxopiperidin-3-yl)-6-fluoro-1,3-dioxoisoindolin-5-yl)piperazin-1-yl)-2-oxoethyl)piperidin-4-yl)-3,3-difluoropropoxy)-2-methylphenyl)picolinic acid] |  | B (50% ≤ Ymin < 70%)
10 | Cc1c(OCCCC[C@H]2CCCN(CC(=O)N3CCN(c4cc5c(cc4F)C(=O)N(C4CCC(=O)NC4=O)C5=O)CC3)C2)cccc1-c1ccc(N2CCc3cccc(C(=O)Nc4nc5ccccc5s4)c3C2)nc1C(=O)O (stereo partly drawn) [Compound 135b, 6-[8-(1,3-benzothiazol-2-ylcarbamoyl)-3,4-dihydro-1H-isoquinolin-2-yl]-3-[3-[4-[(3S)-1-[2-[4-[2-(2,6-dioxo-3-piperidyl)-6-fluoro-1,3-dioxo-isoindolin-5-yl]piperazin-1-yl]-2-oxo-ethyl]-3-piperidyl]butoxy]-2-methyl-phenyl]pyridine-2-carboxylic acid] |  | B (50% ≤ Ymin < 70%)
11 | Cc1c(OCCCCCCCCCN2CCN(c3cc4c(cc3F)C(=O)N(C3CCC(=O)NC3=O)C4=O)CC2)cccc1-c1ccc(N2CCc3cccc(C(=O)Nc4nc5ccccc5s4)c3C2)nc1C(=O)O (stereo not shown) [Compound 105] | A (Ymin < 50%) | 
12 | Cc1c(OCCCCN2CCC(CN3CCN(c4cc5c(cc4F)C(=O)N(C4CCC(=O)NC4=O)C5=O)CC3)CC2)cccc1-c1ccc(N2CCc3cccc(C(=O)Nc4nc5ccccc5s4)c3C2)nc1C(=O)O (stereo not shown) [Compound 123, 6-[8-(1,3-benzothiazol-2-ylcarbamoyl)-3,4-dihydro-1H-isoquinolin-2-yl]-3-[3-[4-[4-[[4-[2-(2,6-dioxo-3-piperidyl)-6-fluoro-1,3-dioxo-isoindolin-5-yl]piperazin-1-yl]methyl]-1-piperidyl]butoxy]-2-methyl-phenyl]pyridine-2-carboxylic acid] |  | B (50% ≤ Ymin < 70%)
13 | Cc1c(O[C@H]2CC[C@H](CCC(=O)N3CCC(c4cc5c(cc4F)C(=O)N(C4CCC(=O)NC4=O)C5=O)CC3)CC2)cccc1-c1ccc(N2CCc3cccc(C(=O)Nc4nc5ccccc5s4)c3C2)nc1C(=O)O (stereo partly shown) [Compound 140a, 6-(8-(benzo[d]thiazol-2-ylcarbamoyl)-3,4-dihydroisoquinolin-2(1H)-yl)-3-(3-(((1r,4r)-4-(3-(4-(2-(2,6-dioxopiperidin-3-yl)-6-fluoro-1,3-dioxoisoindolin-5-yl)piperidin-1-yl)-3-oxopropyl)cyclohexyl)oxy)-2-methylphenyl)picolinic acid] | C (Ymin ≥ 70%) | A (Ymin < 50%)
14 | Cc1c(Oc2ccc(CCCC(=O)N3CCN(c4cc5c(cc4F)C(=O)N(C4CCC(=O)NC4=O)C5=O)CC3)cc2)cccc1-c1ccc(N2CCc3cccc(C(=O)Nc4nc5ccccc5s4)c3C2)nc1C(=O)O (stereo not shown) [Compound 119, 6-(8-(benzo[d]thiazol-2-ylcarbamoyl)-3,4-dihydroisoquinolin-2(1H)-yl)-3-(3-(4-(4-(4-(2-(2,6-dioxopiperidin-3-yl)-6-fluoro-1,3-dioxoisoindolin-5-yl)piperazin-1-yl)-4-oxobutyl)phenoxy)-2-methylphenyl)picolinic acid] | C (Ymin ≥ 70%) | B (50% ≤ Ymin < 70%)
15 | Cc1c(OCCC[C@@H]2CCN(CC(=O)N3CCN(c4cc5c(cc4F)C(=O)N(C4CCC(=O)NC4=O)C5=O)CC3)CC2(F)F)cccc1-c1ccc(N2CCc3cccc(C(=O)Nc4nc5ccccc5s4)c3C2)nc1C(=O)O (stereo partly drawn) [Compound 120a, 6-(8-(benzo[d]thiazol-2-ylcarbamoyl)-3,4-dihydroisoquinolin-2(1H)-yl)-3-(3-(3-((4R)-1-(2-(4-(2-(2,6-dioxopiperidin-3-yl)-6-fluoro-1,3-dioxoisoindolin-5-yl)piperazin-1-yl)-2-oxoethyl)-3,3-difluoropiperidin-4-yl)propoxy)-2-methylphenyl)picolinic acid] |  | B (50% ≤ Ymin < 70%)
16 | Cc1c(OCCCC2CCN([C@@H](C)C(=O)N3CCN(c4cc5c(cc4F)C(=O)N(C4CCC(=O)NC4=O)C5=O)CC3)CC2)cccc1-c1ccc(N2CCc3cccc(C(=O)Nc4nc5ccccc5s4)c3C2)nc1C(=O)O (stereo partly drawn) [Compound 124a, 6-(8-(benzo[d]thiazol-2-ylcarbamoyl)-3,4-dihydroisoquinolin-2(1H)-yl)-3-(3-(3-(1-((2S)-1-(4-(2-(2,6-dioxopiperidin-3-yl)-6-fluoro-1,3-dioxoisoindolin-5-yl)piperazin-1-yl)-1-oxopropan-2-yl)piperidin-4-yl)propoxy)-2-methylphenyl)picolinic acid] |  | B (50% ≤ Ymin < 70%)
